Assay results published in ChEMBL document CHEMBL3124812, “Benzamidobenzoic acids as potent PqsD inhibitors for the treatment of Pseudomonas aeruginosa infections” (Eur J Med Chem, 2014).
pIC50: −log10 of the molar value. The source made the active and inactive calls. The rule behind the calls is not given here.

Test system: Escherichia coli
Test: Inhibition of Escherichia coli RNAP assessed as incorporation of [5,6-3H]UTP at 100 uM preincubated for 10 mins followed by DNA template and ATP, CTP, GTP, UTP, [5,6-3H]UTP addition measured after 10 mins by scintillation counting analysis
Conditions: not given

| Structure (SMILES) | inhibition |
| --- | --- |
| CCN(CC)S(=O)(=O)c1cccc(C(=O)Nc2cc(Cl)ccc2C(=O)O)c1 | inactive |
| CCN(CC)S(=O)(=O)c1cc(C(=O)Nc2ccc(F)cc2C(=O)O)ccc1Br | inactive |
| CCN(CC)S(=O)(=O)c1cccc(C(=O)Nc2ccc(F)cc2C(=O)O)c1 | inactive |
| CCN(CC)S(=O)(=O)c1cccc(C(=O)Nc2ccc([N+](=O)[O-])cc2C(=O)O)c1 | 30% |

Now from value to molecule:

| inhibition | Structure (SMILES) |
| --- | --- |
| inactive | CCN(CC)S(=O)(=O)c1cccc(C(=O)Nc2ccc(-c3ccccc3)cc2C(=O)O)c1 |
| 31% | O=C(O)c1cccc(NC(=O)c2ccc(-c3ccccc3)cc2)c1 |

Test system: Pseudomonas aeruginosa
Test: Inhibition of Pseudomonas aeruginosa His-6-tagged PqsD expressed in Escherichia coli BL21 (lambdaDE3) using anthraniloyl-CoA/beta-ketodecanoic acid at 25 uM as substrate by LC-MS/MS analysis
Conditions: not given

| Structure (SMILES) | inhibition [%] |
| --- | --- |
| COc1ccc(C(=O)O)c(NC(=O)c2ccc(-c3ccccc3)cc2)c1 | 43 |
| O=C(O)c1cccc(NC(=O)c2ccc(-c3ccccc3)cc2)c1 | 25 |

Test system: Pseudomonas aeruginosa
Test: Inhibition of Pseudomonas aeruginosa His-6-tagged PqsD expressed in Escherichia coli BL21 (lambdaDE3) using anthraniloyl-CoA/beta-ketodecanoic acid at 50 uM as substrate by LC-MS/MS analysis
Conditions: not given

| Structure (SMILES) | inhibition [%] |
| --- | --- |
| COc1cc(NC(=O)c2cccc(Oc3ccccc3)c2)c(C(=O)O)cc1OC | 27 |
| O=C(Nc1ccccc1C(=O)O)c1cccc(Oc2ccccc2)c1 | 37 |

Next, values leading:

| inhibition [%] | Structure (SMILES) |
| --- | --- |
| 45 | COc1ccc(-c2cc(NC(=O)c3ccc(-c4ccccc4)cc3)c(C(=O)O)s2)cc1 |
| 35 | O=C(Nc1cc(-c2ccc(Cl)cc2)sc1C(=O)O)c1ccc(-c2ccccc2)cc1 |
| 20 | O=C(Nc1cccc(Cl)c1C(=O)O)c1ccc(-c2ccccc2)cc1 |
| 28 | O=C(Nc1sc(-c2ccccc2)cc1C(=O)O)c1ccc(-c2ccccc2)cc1 |
| 21 | O=C(Nc1cccc(F)c1C(=O)O)c1ccc(-c2ccccc2)cc1 |
| 46 | COc1ccc(NC(=O)c2ccc(-c3ccccc3)cc2)c(C(=O)O)c1 |
| 55 | O=C(Nc1ccccc1C(=O)O)c1ccc(-c2ccccc2)cc1 |
| 57 | O=C(Nc1ccc(F)cc1C(=O)O)c1cccc(Oc2ccccc2)c1 |
| 42 | Cc1ccc(NC(=O)c2ccc(-c3ccccc3)cc2)c(C(=O)O)c1 |
| 27 | COc1cc(NC(=O)c2ccc(-c3ccccc3)cc2)c(C(=O)O)cc1OC |

Test system: Escherichia coli
Test: Inhibition of Escherichia coli RNAP assessed as incorporation of [5,6-3H]UTP at 200 uM preincubated for 10 mins followed by DNA template and ATP, CTP, GTP, UTP, [5,6-3H]UTP addition measured after 10 mins by scintillation counting analysis
Conditions: not given

| Structure (SMILES) | inhibition |
| --- | --- |
| CCN(CC)S(=O)(=O)c1cccc(C(=O)Nc2ccccc2C(=O)O)c1 | inactive |
| NS(=O)(=O)c1cccc(C(=O)Nc2ccccc2C(=O)O)c1 | inactive |
| CCN(CC)S(=O)(=O)c1cccc(C(=O)Nc2cccc(O)c2C(=O)O)c1 | inactive |
| CCc1ccc(C(=O)Nc2ccccc2C(=O)O)cc1S(=O)(=O)N(CC)CC | inactive |
| O=C(Nc1ccccc1C(=O)O)c1cccc(S(=O)(=O)N2CCCCC2)c1 | inactive |
| CCN(CC)S(=O)(=O)c1cccc(C(=O)Nc2cc([N+](=O)[O-])ccc2C(=O)O)c1 | inactive |
| CCN(CC)C(=O)c1cccc(C(=O)Nc2ccc(Br)cc2C(=O)O)c1 | inactive |
| CCN(CC)C(=O)c1cccc(C(=O)Nc2ccccc2C(=O)O)c1 | inactive |
| CCN(CC)S(=O)(=O)c1cc(C(=O)Nc2ccccc2C(=O)O)ccc1C | inactive |
| CCN(CC)S(=O)(=O)c1ccc(C(=O)Nc2ccc(Br)cc2C(=O)O)cc1 | 28% |
| CCN(CC)S(=O)(=O)c1cccc(C(=O)Nc2cccc(Cl)c2C(=O)O)c1 | inactive |
| CCN(CC)S(=O)(=O)c1cccc(C(=O)Nc2ccc(-c3cccc(C(N)=O)c3)cc2C(=O)O)c1 | 45% |
| CN(C)S(=O)(=O)c1cccc(C(=O)Nc2ccccc2C(=O)O)c1 | inactive |
| CCN(CC)S(=O)(=O)c1cccc(C(=O)Nc2cccc(F)c2C(=O)O)c1 | inactive |
| CCN(Cc1ccccc1)S(=O)(=O)c1cccc(C(=O)Nc2ccccc2C(=O)O)c1 | 29% |
| O=C(Nc1ccccc1C(=O)O)c1cccc(S(=O)(=O)N2CCCC2)c1 | inactive |
| CCN(CC)S(=O)(=O)c1cccc(C(=O)Nc2ccc(-c3cccc(C(=O)O)c3)cc2C(=O)O)c1 | 24% |
| CCN(CC)S(=O)(=O)c1cccc(C(=O)Nc2cc(F)ccc2C(=O)O)c1 | inactive |
| CCN(CC)S(=O)(=O)c1cccc(C(=O)Nc2cccc(OC)c2C(=O)O)c1 | inactive |
| O=C(Nc1ccccc1C(=O)O)c1cccc(S(=O)(=O)N2CCCCCC2)c1 | inactive |
| CCN(CC)S(=O)(=O)c1cc(C(=O)Nc2ccccc2C(=O)O)ccc1Br | inactive |
| CCN(CC)S(=O)(=O)c1cccc(C(=O)Nc2ccc(C#N)cc2C(=O)O)c1 | inactive |
| CCN(CC)S(=O)(=O)c1cccc(C(=O)Nc2ccc(C)cc2C(=O)O)c1 | inactive |
| CCN(CC)S(=O)(=O)c1ccc(C(=O)Nc2ccccc2C(=O)O)cc1 | inactive |
| O=C(Nc1ccccc1C(=O)O)c1cccc(S(=O)(=O)N2CCOCC2)c1 | inactive |
| CCCN(CCC)S(=O)(=O)c1cccc(C(=O)Nc2ccccc2C(=O)O)c1 | inactive |

Second part, the molecule after the results:

| inhibition | Structure (SMILES) |
| --- | --- |
| 25% | O=C(O)c1ccc(Br)c(NC(=O)c2ccc(-c3ccccc3)cc2)c1 |
| 28% | O=C(Nc1ccsc1C(=O)O)c1ccc(-c2ccccc2)cc1 |
| 33% | O=C(Nc1cscc1C(=O)O)c1ccc(-c2ccccc2)cc1 |

Test system: Escherichia coli
Test: Inhibition of Escherichia coli RNAP assessed as incorporation of [5,6-3H]UTP at 50 uM preincubated for 10 mins followed by DNA template and ATP, CTP, GTP, UTP, [5,6-3H]UTP addition measured after 10 mins by scintillation counting analysis
Conditions: not given

| Structure (SMILES) | inhibition |
| --- | --- |
| O=C(Nc1sc(-c2ccccc2)cc1C(=O)O)c1ccc(-c2ccccc2)cc1 | 33% |
| CCN(CC)S(=O)(=O)c1cccc(C(=O)Nc2ccc(Br)cc2C(=O)O)c1 | inactive |
| CCN(CC)S(=O)(=O)c1cccc(C(=O)Nc2ccc(C(F)(F)F)cc2C(=O)O)c1 | inactive |
| CCN(CC)S(=O)(=O)c1cc(C(=O)Nc2ccc(Br)cc2C(=O)O)ccc1Br | inactive |
| CCN(CC)S(=O)(=O)c1cccc(C(=O)Nc2ccc(-c3ccc(C(=O)O)cc3)cc2C(=O)O)c1 | 23% |

Test system: not listed separately
Test: Inhibition of Pseudomonas aeruginosa His-6-tagged PqsD expressed in Escherichia coli BL21 (lambdaDE3) using anthraniloyl-CoA/beta-ketodecanoic acid as substrate by LC-MS/MS analysis
Conditions: not given

| Structure (SMILES) | IC50 |
| --- | --- |
| O=C(O)c1ccc(Br)c(NC(=O)c2ccc(-c3ccccc3)cc2)c1 | Not Active |
| N#Cc1cc(Br)ccc1NC(=O)c1ccc(-c2ccccc2)cc1 | Not Active |
| COC(=O)c1cc(Br)ccc1NC(=O)c1ccc(-c2ccccc2)cc1 | Not Active |
| NC(=O)c1cc(Br)ccc1NC(=O)c1ccc(-c2ccccc2)cc1 | Not Active |
| O=C(Nc1ccccc1C(=O)O)c1ccccc1 | Not Active |
| COc1cccc(NC(=O)c2ccc(-c3ccccc3)cc2)c1C(=O)O | Not Active |

Same assay, conditions: read-out: IC50

| Structure (SMILES) | pIC50 |
| --- | --- |
| O=C(Nc1ccccc1C(=O)O)c1ccc(-c2ccccc2)c(Oc2ccccc2)c1 | 5.18 |
| O=C(Nc1cc(Cl)ccc1C(=O)O)c1ccc(-c2ccccc2)c(Oc2ccccc2)c1 | 5.30 |
| O=C(Nc1cc(F)ccc1C(=O)O)c1ccc(-c2ccccc2)c(Oc2ccccc2)c1 | 5.22 |

Results, then the molecule that gave them:

| pIC50 | Structure (SMILES) |
| --- | --- |
| 5.07 | N#Cc1ccc(NC(=O)c2ccc(-c3ccccc3)cc2)c(C(=O)O)c1 |
| 4.80 | O=C(Nc1sccc1C(=O)O)c1ccc(-c2ccccc2)cc1 |
| 5.24 | O=C(Nc1cc(Cl)ccc1C(=O)O)c1cccc(Oc2ccccc2)c1 |
| 5.36 | O=C(Nc1ccc(Br)cc1C(=O)O)c1cccc(Oc2ccccc2)c1 |
| 5.18 | O=C(Nc1cc(-c2ccccc2)ccc1C(=O)O)c1cccc(Oc2ccccc2)c1 |
| 5.01 | O=C(Nc1cc(-c2ccccc2)sc1C(=O)O)c1ccc(-c2ccccc2)cc1 |
| 4.74 | O=C(Nc1cc(F)ccc1C(=O)O)c1ccc(-c2ccccc2)cc1 |
| 5.31 | O=C(Nc1cc(C(F)(F)F)ccc1C(=O)O)c1ccc(-c2ccccc2)cc1 |
| 5.89 | O=C(O)c1cc(Br)ccc1NS(=O)(=O)c1ccc(-c2ccccc2)cc1 |
| 5.38 | O=C(Nc1ccc(O)cc1C(=O)O)c1ccc(-c2ccccc2)cc1 |
| 5.29 | O=C(Nc1cc(Br)ccc1C(=O)O)c1cccc(Oc2ccccc2)c1 |
| 4.82 | O=C(Nc1ccc(F)cc1C(=O)O)c1ccc(-c2ccccc2)cc1 |
| 5.89 | O=C(Nc1cccc(O)c1C(=O)O)c1ccc(-c2ccccc2)cc1 |
| 5.06 | O=C(Nc1cc(Cl)ccc1C(=O)O)c1ccc(-c2ccccc2)cc1 |
| 5.21 | O=C(Nc1c(Cl)cccc1C(=O)O)c1ccc(-c2ccccc2)cc1 |
| 5.49 | O=C(Nc1cc(Br)ccc1C(=O)O)c1ccc(-c2ccccc2)cc1 |
| 5.47 | O=C(Nc1ccc(C(F)(F)F)cc1C(=O)O)c1ccc(-c2ccccc2)cc1 |
| 5.28 | O=C(Nc1ccsc1C(=O)O)c1ccc(-c2ccccc2)cc1 |
| 5.30 | O=C(Nc1ccc(Br)cc1C(=O)O)c1cccc(Cc2ccccc2)c1 |
| 5.48 | O=C(Nc1cc([N+](=O)[O-])ccc1C(=O)O)c1ccc(-c2ccccc2)cc1 |
| 4.49 | O=C(O)c1cc(Br)cc(NC(=O)c2ccc(-c3ccccc3)cc2)c1 |
| 4.71 | O=C(Nc1cscc1C(=O)O)c1ccc(-c2ccccc2)cc1 |
| 5.40 | O=C(Nc1ccc(OC(F)(F)F)cc1C(=O)O)c1ccc(-c2ccccc2)cc1 |
| 5.11 | O=C(Nc1ccc(-c2ccccc2)cc1C(=O)O)c1cccc(Oc2ccccc2)c1 |
| 5.49 | O=C(Nc1ccc(Br)cc1C(=O)O)c1ccc(-c2ccccc2)cc1 |
| 5.42 | O=C(Nc1ccc(Cl)cc1C(=O)O)c1ccc(-c2ccccc2)cc1 |

Test system: not listed separately
Test: Inhibition of Escherichia coli RNAP assessed as incorporation of [5,6-3H]UTP preincubated for 10 mins followed by DNA template and ATP, CTP, GTP, UTP, [5,6-3H]UTP addition measured after 10 mins by scintillation counting analysis
Conditions: not given

| Structure (SMILES) | IC50 |
| --- | --- |
| N#Cc1cc(Br)ccc1NC(=O)c1ccc(-c2ccccc2)cc1 | Not Active |
| COC(=O)c1cc(Br)ccc1NC(=O)c1ccc(-c2ccccc2)cc1 | Not Active |
| NC(=O)c1cc(Br)ccc1NC(=O)c1ccc(-c2ccccc2)cc1 | Not Active |

Same assay, conditions: read-out: IC50

| Structure (SMILES) | pIC50 |
| --- | --- |
| COc1ccc(-c2cc(NC(=O)c3ccc(-c4ccccc4)cc3)c(C(=O)O)s2)cc1 | 5.05 |
| O=C(Nc1sccc1C(=O)O)c1ccc(-c2ccccc2)cc1 | 3.79 |
| O=C(Nc1cc(-c2ccc(Cl)cc2)sc1C(=O)O)c1ccc(-c2ccccc2)cc1 | 4.89 |
| O=C(Nc1cc(-c2ccccc2)sc1C(=O)O)c1ccc(-c2ccccc2)cc1 | 5.00 |
| O=C(O)c1cc(Br)ccc1NS(=O)(=O)c1ccc(-c2ccccc2)cc1 | 4.46 |
| O=C(Nc1cccc(O)c1C(=O)O)c1ccc(-c2ccccc2)cc1 | 4.13 |
| CCN(CC)S(=O)(=O)c1cccc(C(=O)Nc2ccc(-c3ccc(C(N)=O)cc3)cc2C(=O)O)c1 | 4.11 |
| O=C(O)c1cc(Br)cc(NC(=O)c2ccc(-c3ccccc3)cc2)c1 | 3.96 |

Test system: not listed separately
Test: Selectivity index, ratio of IC50 for Escherichia coli RNAP to IC50 for Pseudomonas aeruginosa PqsD
Conditions: not given

| Structure (SMILES) | Ratio IC50 |
| --- | --- |
| O=C(Nc1cccc(O)c1C(=O)O)c1ccc(-c2ccccc2)cc1 | 50 |
